In PubChem BioAssay AID248 (DTP/NCI, 2004):
Several values for one entry are separate records, joined by “and”; a condition that tells them apart may be missing. Equal values may be shown once. Inconclusive results and toxic doses are left out. Cut-off read from the data, not from the text of the source: active = T/C of 150% or more; inactive = T/C below 125%.

Tested on: L1210 leukemia ip in BDF1 mice, survival T/C
Assay: NCI In Vivo Anticancer Drug Screen. Data for tumor model L1210 Leukemia (intraperitoneal) in B6D2F1 (BDF1) mice
Details: endpoint: mean survival time, higher = longer survival
Summary of the method: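 Transplanted-tumor mice were given test agent; controls received vehicle only. Survival readings from the two groups were divided (treated over control).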

[1] = dose: 100.0 mg/kg/injection, schedule: Q04DX003 (ip), vehicle: saline
[2] = dose: 200.0 mg/kg/injection, schedule: Q04DX003 (ip), vehicle: saline
[3] = dose: 400.0 mg/kg/injection, schedule: Q04DX003 (ip), vehicle: saline
[4] = dose: 100.0 mg/kg/injection, schedule: Q01DX001 (ip), vehicle: saline
[5] = dose: 100.0 mg/kg/injection, schedule: Q01DX Z (ip), vehicle: methylcellulose (MC)
[6] = dose: 100.0 mg/kg/injection, schedule: Q04DX003 (ip), vehicle: saline with Tween-80
[7] = dose: 200.0 mg/kg/injection, schedule: Q04DX003 (ip), vehicle: saline with Tween-80
[8] = dose: 400.0 mg/kg/injection, schedule: Q04DX003 (ip), vehicle: saline with Tween-80
[9] = dose: 75.0 mg/kg/injection, schedule: Q01DX001 (ip), vehicle: saline
[10] = dose: 100.0 mg/kg/injection, schedule: Q01DX001 (ip), vehicle: carboxymethylcellulose (CMC)
[11] = dose: 200.0 mg/kg/injection, schedule: Q01DX001 (ip), vehicle: carboxymethylcellulose (CMC)
[12] = dose: 400.0 mg/kg/injection, schedule: Q01DX001 (ip), vehicle: carboxymethylcellulose (CMC)
[13] = dose: 12.5 mg/kg/injection, schedule: Q04DX003 (ip), vehicle: saline
[14] = dose: 25.0 mg/kg/injection, schedule: Q04DX003 (ip), vehicle: saline
[15] = dose: 50.0 mg/kg/injection, schedule: Q04DX003 (ip), vehicle: saline

Measured: T/C

COc1ccc(C2CCc3cc(OC)c(OC)cc3C2NC=O)cc1OC (stereo unspecified)
inactive: dose: 40.0 mg/kg/injection, schedule: Q01DX009 (ip), vehicle: saline with Tween-80 90 % of control | dose: 80.0 mg/kg/injection, schedule: Q01DX009 (ip), vehicle: saline with Tween-80 102 % of control | dose: 120.0 mg/kg/injection, schedule: Q01DX009 (ip), vehicle: saline with Tween-80 93 % of control | dose: 240.0 mg/kg/injection, schedule: Q01DX009 (ip), vehicle: saline with Tween-80 90 % of control | dose: 360.0 mg/kg/injection, schedule: Q01DX009 (ip), vehicle: saline with Tween-80 87 % of control

c1ccc2cc(Nc3ccc(Nc4ccc5ccccc5c4)cc3)ccc2c1
inactive: dose: 75.0 mg/kg/injection, schedule: Q01DX009 (ip), vehicle: Klucel (hydroxypropylcellulose) (HPC) 103 % of control | [1] 106 % of control | dose: 150.0 mg/kg/injection, schedule: Q01DX009 (ip), vehicle: Klucel (hydroxypropylcellulose) (HPC) 104 % of control | [2] 97 % of control | dose: 300.0 mg/kg/injection, schedule: Q01DX009 (ip), vehicle: Klucel (hydroxypropylcellulose) (HPC) 110 % of control | [3] 100 % of control

COC1=C(OC)C(=O)C(SC/C=C(\C)CCCC(C)CCCC(C)CCCC(C)C)=CC1=O (stereo unspecified)
inactive: dose: 6.25 mg/kg/injection, schedule: Q01DX009 (ip), vehicle: saline with Tween-80 103 % of control | dose: 12.5 mg/kg/injection, schedule: Q01DX009 (ip), vehicle: saline with Tween-80 105 % of control | dose: 25.0 mg/kg/injection, schedule: Q01DX009 (ip), vehicle: saline with Tween-80 100 % of control and 113 % of control | dose: 50.0 mg/kg/injection, schedule: Q01DX009 (ip), vehicle: saline with Tween-80 104 % of control and 122 % of control | dose: 100.0 mg/kg/injection, schedule: Q01DX009 (ip), vehicle: saline with Tween-80 105 % of control and 122 % of control | dose: 200.0 mg/kg/injection, schedule: Q01DX009 (ip), vehicle: saline with Tween-80 115 % of control and 124 % of control | dose: 400.0 mg/kg/injection, schedule: Q01DX009 (ip), vehicle: saline with Tween-80 115 % of control

CCOC(=O)CC(N)CC(=O)OCC
inactive: [4] 104 % of control | dose: 200.0 mg/kg/injection, schedule: Q01DX001 (ip), vehicle: saline 104 % of control | dose: 400.0 mg/kg/injection, schedule: Q01DX001 (ip), vehicle: saline 106 % of control

O/N=C1\CCCc2sccc21
inactive: dose: 100.0 mg/kg/injection, schedule: Q01DX001 (ip), vehicle: steriod suspending solution 114 % of control | dose: 200.0 mg/kg/injection, schedule: Q01DX001 (ip), vehicle: steriod suspending solution 98 % of control | dose: 400.0 mg/kg/injection, schedule: Q01DX001 (ip), vehicle: steriod suspending solution 98 % of control

Cc1cc2c(=O)[nH]c(N)nc2nc1C
inactive: [5] 95 % of control | dose: 200.0 mg/kg/injection, schedule: Q01DX Z (ip), vehicle: methylcellulose (MC) 94 % of control

Cc1cnc(Cl)nc1N1CC1
inactive: dose: 1.0 mg/kg/injection, schedule: Q01DX Z (ip), vehicle: methylcellulose (MC) 91 % of control

CCCCCCCC(=O)Nc1c(C)cccc1C
inactive: [6] 97 % of control | [7] 93 % of control | [8] 93 % of control

Clc1ccc2c(Cl)cc(Cl)nc2c1
inactive: [9] 92 % of control | dose: 300.0 mg/kg/injection, schedule: Q01DX001 (ip), vehicle: saline 87 % of control

CCCCN=C(NCCCC)Oc1ccccc1
inactive: dose: 26.6 mg/kg/injection, schedule: Q01DX Z (ip), vehicle: methylcellulose (MC) 104 % of control | dose: 40.0 mg/kg/injection, schedule: Q01DX Z (ip), vehicle: methylcellulose (MC) 102 % of control | dose: 60.0 mg/kg/injection, schedule: Q01DX Z (ip), vehicle: methylcellulose (MC) 102 % of control

Nc1ncnc2c1nnn2CCCCC(N)C(=O)O (stereo unspecified)
inactive: [1] 111 % of control | [2] 106 % of control | [3] 95 % of control

CC1COCC(C)N1CC(=O)Nc1ccc(S(=O)(=O)c2ccc(NC(=O)CN3C(C)COCC3C)cc2)cc1 (stereo unspecified)
inactive: [10] 107 % of control | [11] 95 % of control | [12] 95 % of control

Cc1ccc(C)c(NC(=S)NC(=O)c2ccc(Cl)cc2Cl)c1
inactive: dose: 100.0 mg/kg/injection, schedule: Q01DX001 (ip), vehicle: saline with Tween-80 104 % of control | dose: 100.0 mg/kg/injection, schedule: Q04DX002 (ip), vehicle: saline with Tween-80 95 % of control and 100 % of control | [6] 102 % of control | dose: 200.0 mg/kg/injection, schedule: Q01DX001 (ip), vehicle: saline with Tween-80 104 % of control | dose: 200.0 mg/kg/injection, schedule: Q04DX002 (ip), vehicle: saline with Tween-80 96 % of control and 110 % of control | [7] 105 % of control | dose: 400.0 mg/kg/injection, schedule: Q01DX001 (ip), vehicle: saline with Tween-80 100 % of control | dose: 400.0 mg/kg/injection, schedule: Q04DX002 (ip), vehicle: saline with Tween-80 96 % of control and 102 % of control | [8] 100 % of control

CC(=O)N(C)c1ccc(NC(=O)Nc2ccccc2F)cc1
inactive: dose: 100.0 mg/kg/injection, schedule: Q01DX009 (ip), vehicle: Klucel (hydroxypropylcellulose) (HPC) 98 % of control | dose: 200.0 mg/kg/injection, schedule: Q01DX009 (ip), vehicle: Klucel (hydroxypropylcellulose) (HPC) 95 % of control | dose: 400.0 mg/kg/injection, schedule: Q01DX009 (ip), vehicle: Klucel (hydroxypropylcellulose) (HPC) 95 % of control

Cc1ccc(-c2c([N+](=O)[O-])ccc(Cl)c2[N+](=O)[O-])cc1
inactive: dose: 50.0 mg/kg/injection, schedule: Q01DX001 (ip), vehicle: carboxymethylcellulose (CMC) 102 % of control | [10] 105 % of control | [11] 102 % of control | [12] 100 % of control

CCOC(=O)C1(C(=O)OCC)C2CC(C)=C(C)CC21 (stereo unspecified)
inactive: dose: 50.0 mg/kg/injection, schedule: Q01DX009 (ip), vehicle: acetone 92 % of control | dose: 100.0 mg/kg/injection, schedule: Q01DX009 (ip), vehicle: acetone 90 % of control

CN(CCO)N=Nc1ccccc1Cl
inactive: dose: 25.0 mg/kg/injection, schedule: Q01DX009 (ip), vehicle: other 101 % of control | dose: 50.0 mg/kg/injection, schedule: Q01DX009 (ip), vehicle: other 100 % of control | dose: 100.0 mg/kg/injection, schedule: Q01DX009 (ip), vehicle: other 94 % of control

O=C1CCN(Cc2ccccc2)C(=S)N1
inactive: [5] 93 % of control

c1ccc(N2CCSCC2)cc1
inactive: dose: 12.0 mg/kg/injection, schedule: Q01DX Z (ip), vehicle: methylcellulose (MC) 108 % of control | dose: 18.0 mg/kg/injection, schedule: Q01DX Z (ip), vehicle: methylcellulose (MC) 110 % of control | dose: 27.0 mg/kg/injection, schedule: Q01DX Z (ip), vehicle: methylcellulose (MC) 103 % of control | dose: 40.5 mg/kg/injection, schedule: Q01DX Z (ip), vehicle: methylcellulose (MC) 92 % of control

C=CC[P+](Cc1cccc(OC)c1)(c1ccccc1)c1ccccc1
inactive: dose: 6.25 mg/kg/injection, schedule: Q04DX003 (ip), vehicle: saline 98 % of control | [13] 98 % of control | [14] 98 % of control | [15] 93 % of control

C[N+](C)(C)c1ccccn1
inactive: [9] 102 % of control

CCCCNCC1COc2cccc(OCC)c2O1 (stereo unspecified)
inactive: dose: 6.25 mg/kg/injection, schedule: Q01DX009 (ip), vehicle: saline 107 % of control | dose: 12.5 mg/kg/injection, schedule: Q01DX009 (ip), vehicle: saline 105 % of control | [13] 106 % of control | dose: 25.0 mg/kg/injection, schedule: Q01DX009 (ip), vehicle: saline 108 % of control | [14] 95 % of control | dose: 50.0 mg/kg/injection, schedule: Q01DX009 (ip), vehicle: saline 113 % of control | [15] 108 % of control | [4] 103 % of control | [1] 95 % of control
